# Data: patent US10815229B1, “Benzenesulfonamide compounds and their use as therapeutic agents” (Xenon Pharmaceuticals Inc., priority 2016, dated 2020)
# Assays:
# NaV1.6 = NaV1.6 (Homo sapiens (Human), UniProt Q9UQD0); assay: Sodium Influx Assay (Flux), NaV1.6; conditions: read-out: Flux NaV1.6 IC50; Trex HEK293 cells, ANG2 dye; arithmetic mean
# NaV1.1 = NaV1.1 (Homo sapiens (Human), UniProt P35498); assay: Sodium Influx Assay (Flux), NaV1.1; type: cell-based; conditions: Trex HEK293 cells, ANG2 dye; arithmetic mean
substance,measurement,setting,value
(S)-2-fluoro-4-((1-(2-hydroxybenzyl)-pyrrolidin-3-yl)(methyDamino)-5-methyl-N-(thiazol-4-yl)benzenesulfonamide [Example 113],IC50,NaV1.6,0.258 µM
same,IC50,NaV1.1,17.9 µM
